Measurements as given in US20170050957A1, “4-AMINO-6-(HETEROCYCLIC)PICOLINATES AND 6-AMINO-2-(HETEROCYCLIC)PYRIMIDINE-4-CARBOXYLATES AND THEIR USE AS HERBICIDES” (Dow AgroSciences LLC, priority 2013, published 2017).

System: Wheat and Barley and test plant species
Assay: Post-emergent Test III, herbicidal activity in wheat and barley (Table 17; visual injury, GR20/GR50/GR80/GR90)
Format: in vivo
Conditions: 21 d; for Visual Growth Reduction (%) 21 Days After Application, CIRAR / Visual Growth Reduction (%) 21 Days After Application, GALAP / Visual Growth Reduction (%) 21 Days After Application, HORVS / Visual Growth Reduction (%) 21 Days After Application, KCHSC / Visual Growth Reduction (%) 21 Days After Application, LAMPU / Visual Growth Reduction (%) 21 Days After Application, MATCH / Visual Growth Reduction (%) 21 Days After Application, PAPRH / Visual Growth Reduction (%) 21 Days After Application, SASKR / Visual Growth Reduction (%) 21 Days After Application, SINAR / Visual Growth Reduction (%) 21 Days After Application, TRZAS / Visual Growth Reduction (%) 21 Days After Application, VERPE / Visual Growth Reduction (%) 21 Days After Application, VIOTR: post-emergent
Procedure: Post-emergent Test III. Seeds of the desired test plant species were planted in Sun Gro MetroMix® 306 planting mixture, which typically has a pH of 6.0 to 6.8 and an organic matter content of about 30 percent, in plastic pots with a surface area of 103.2 square centimeters (cm^2). When required to ensure good germination and healthy plants, a fungicide treatment and/or other chemical or physical treatment was applied. The plants were grown for 7-36 days (d) in a greenhouse with an approximate 14 hour (h) photoperiod which was maintained at about 18° C. during the day and 17° C. during the night. Nutrients and water were added on a regular basis and supplemental lighting was provided with overhead metal halide 1000-Watt lamps as necessary. The plants were employed for testing when they reached the second or third true leaf stage.
A weighed amount, determined by the highest rate to be tested, of each test compound was placed in a 25 mL glass vial and was dissolved in 4 mL of a 97:3 v/v mixture of acetone and DMSO to obtain concentrated stock solutions. […] The concentrated stock solutions obtained were diluted with 20 mL of an aqueous mixture containing acetone, water, isopropyl alcohol, DMSO, Agri-Dex crop oil concentrate, and X-77 surfactant in a 48:39:10:1.5:1.5:0.02 v/v ratio to obtain spray solutions containing the highest application rates. Additional application rates were obtained by serial dilution of 12 mL of the high rate solution into a solution containing 2 mL of 97:3 v/v mixture of acetone and DMSO and 10 mL of an aqueous mixture containing acetone, water, isopropyl alcohol, DMSO, Agri-Dex crop oil concentrate, and X-77 surfactant in a 48:39:10:1.5:1.5:0.02 v/v ratio to obtain 1/2×, 1/4×, 1/8× and 1/16× rates of the high rate. Compound requirements are based upon a 12 mL application volume at a rate of 187 liters per hectare (L/ha). Formulated compounds were applied to the plant material with an overhead Mandel track sprayer equipped with 8002E nozzles calibrated to deliver 187 L/ha over an application area of 0.503 square meters at a spray height of 18 inches (43 cm) above the average plant canopy height. Control plants were sprayed in the same manner with the solvent blank.
The treated plants and control plants were placed in a greenhouse as described above and watered by subirrigation to prevent wash-off of the test compounds. After 21 d, the condition of the test plants as compared with that of the untreated plants was determined visually and scored on a scale of 0 to 100 percent where 0 corresponds to no injury and 100 corresponds to complete kill. By applying the well-accepted probit analysis as described by J. Berkson in Journal of the American Statistical […], 48, 565 (1953) and by D. Finney in “Probit Analysis” Cambridge University Press (1952), the above data can be used to calculate GR20, GR50, GR80 and GR90 values, which are defined as growth reduction factors that correspond to the effective dose of herbicide required to kill or control 20 percent, 50 percent, 80 percent or 90 percent, respectively, of a target plant.

COC(=O)c1nc(-c2ccc3cc[nH]c3c2F)c(F)c(N)c1Cl [Compound 1.15, Methyl 4-amino-3-chloro-5-fluoro-6-(7-fluoro-1H-indol-6-yl)picolinate]
Visual Growth Reduction (%) 21 Days After Application, CIRAR (CIRAR, 17.5 g ai/ha): F (30-44)
Visual Growth Reduction (%) 21 Days After Application, CIRAR (CIRAR, 35 g ai/ha): D (60-74)
Visual Growth Reduction (%) 21 Days After Application, CIRAR (CIRAR, 70 g ai/ha): C (75-84)
GR50, CIRAR (CIRAR, dose for 50 percent growth reduction, probit analysis): 30 g ai/ha
GR80, CIRAR (CIRAR, dose for 80 percent growth reduction, probit analysis): 70 g ai/ha
GR90, CIRAR (CIRAR, dose for 90 percent growth reduction, probit analysis): 109 g ai/ha
Visual Growth Reduction (%) 21 Days After Application, GALAP (GALAP, 17.5 g ai/ha): D (60-74)
Visual Growth Reduction (%) 21 Days After Application, GALAP (GALAP, 35 g ai/ha): B (85-94)
Visual Growth Reduction (%) 21 Days After Application, GALAP (GALAP, 70 g ai/ha): A (95-100)
GR50, GALAP (GALAP, dose for 50 percent growth reduction, probit analysis): 9 g ai/ha
GR80, GALAP (GALAP, dose for 80 percent growth reduction, probit analysis): 23 g ai/ha
GR90, GALAP (GALAP, dose for 90 percent growth reduction, probit analysis): 37 g ai/ha
Visual Growth Reduction (%) 21 Days After Application, HORVS (HORVS, 17.5 g ai/ha): F (30-44)
Visual Growth Reduction (%) 21 Days After Application, HORVS (HORVS, 35 g ai/ha): E (45-59)
Visual Growth Reduction (%) 21 Days After Application, HORVS (HORVS, 70 g ai/ha): E (45-59)
GR20, HORVS (HORVS, dose for 20 percent growth reduction, probit analysis): 8 g ai/ha
Visual Growth Reduction (%) 21 Days After Application, KCHSC (KCHSC, 17.5 g ai/ha): D (60-74)
Visual Growth Reduction (%) 21 Days After Application, KCHSC (KCHSC, 35 g ai/ha): B (85-94)
Visual Growth Reduction (%) 21 Days After Application, KCHSC (KCHSC, 70 g ai/ha): B (85-94)
GR50, KCHSC (KCHSC, dose for 50 percent growth reduction, probit analysis): 6 g ai/ha
GR80, KCHSC (KCHSC, dose for 80 percent growth reduction, probit analysis): 28 g ai/ha
GR90, KCHSC (KCHSC, dose for 90 percent growth reduction, probit analysis): 67 g ai/ha
Visual Growth Reduction (%) 21 Days After Application, LAMPU (LAMPU, 17.5 g ai/ha): A (95-100)
Visual Growth Reduction (%) 21 Days After Application, LAMPU (LAMPU, 35 g ai/ha): A (95-100)
Visual Growth Reduction (%) 21 Days After Application, LAMPU (LAMPU, 70 g ai/ha): A (95-100)
GR50, LAMPU (LAMPU, dose for 50 percent growth reduction, probit analysis): 0.10 g ai/ha
GR80, LAMPU (LAMPU, dose for 80 percent growth reduction, probit analysis): 1 g ai/ha
GR90, LAMPU (LAMPU, dose for 90 percent growth reduction, probit analysis): 2 g ai/ha
Visual Growth Reduction (%) 21 Days After Application, MATCH (MATCH, 17.5 g ai/ha): F (30-44)
Visual Growth Reduction (%) 21 Days After Application, MATCH (MATCH, 35 g ai/ha): E (45-59)
Visual Growth Reduction (%) 21 Days After Application, MATCH (MATCH, 70 g ai/ha): D (60-74)
GR50, MATCH (MATCH, dose for 50 percent growth reduction, probit analysis): 45 g ai/ha
GR80, MATCH (MATCH, dose for 80 percent growth reduction, probit analysis): >140 g ai/ha
GR90, MATCH (MATCH, dose for 90 percent growth reduction, probit analysis): >140 g ai/ha
Visual Growth Reduction (%) 21 Days After Application, PAPRH (PAPRH, 17.5 g ai/ha): A (95-100)
Visual Growth Reduction (%) 21 Days After Application, PAPRH (PAPRH, 35 g ai/ha): A (95-100)
Visual Growth Reduction (%) 21 Days After Application, PAPRH (PAPRH, 70 g ai/ha): A (95-100)
GR50, PAPRH (PAPRH, dose for 50 percent growth reduction, probit analysis): 0.06 g ai/ha
GR80, PAPRH (PAPRH, dose for 80 percent growth reduction, probit analysis): 1 g ai/ha
GR90, PAPRH (PAPRH, dose for 90 percent growth reduction, probit analysis): 2 g ai/ha
Visual Growth Reduction (%) 21 Days After Application, SASKR (SASKR, 17.5 g ai/ha): C (75-84)
Visual Growth Reduction (%) 21 Days After Application, SASKR (SASKR, 35 g ai/ha): C (75-84)
Visual Growth Reduction (%) 21 Days After Application, SASKR (SASKR, 70 g ai/ha): B (85-94)
GR50, SASKR (SASKR, dose for 50 percent growth reduction, probit analysis): 7 g ai/ha
GR80, SASKR (SASKR, dose for 80 percent growth reduction, probit analysis): 30 g ai/ha
GR90, SASKR (SASKR, dose for 90 percent growth reduction, probit analysis): 95 g ai/ha
Visual Growth Reduction (%) 21 Days After Application, SINAR (SINAR, 17.5 g ai/ha): A (95-100)
Visual Growth Reduction (%) 21 Days After Application, SINAR (SINAR, 35 g ai/ha): A (95-100)
Visual Growth Reduction (%) 21 Days After Application, SINAR (SINAR, 70 g ai/ha): A (95-100)
GR50, SINAR (SINAR, dose for 50 percent growth reduction, probit analysis): 4 g ai/ha
GR80, SINAR (SINAR, dose for 80 percent growth reduction, probit analysis): 8 g ai/ha
GR90, SINAR (SINAR, dose for 90 percent growth reduction, probit analysis): 12 g ai/ha
Visual Growth Reduction (%) 21 Days After Application, TRZAS (TRZAS, 17.5 g ai/ha): F (30-44)
Visual Growth Reduction (%) 21 Days After Application, TRZAS (TRZAS, 35 g ai/ha): E (45-59)
Visual Growth Reduction (%) 21 Days After Application, TRZAS (TRZAS, 70 g ai/ha): D (60-74)
GR20, TRZAS (TRZAS, dose for 20 percent growth reduction, probit analysis): 13 g ai/ha
Visual Growth Reduction (%) 21 Days After Application, VERPE (VERPE, 17.5 g ai/ha): A (95-100)
Visual Growth Reduction (%) 21 Days After Application, VERPE (VERPE, 35 g ai/ha): A (95-100)
Visual Growth Reduction (%) 21 Days After Application, VERPE (VERPE, 70 g ai/ha): A (95-100)
GR50, VERPE (VERPE, dose for 50 percent growth reduction, probit analysis): 0.28 g ai/ha
GR80, VERPE (VERPE, dose for 80 percent growth reduction, probit analysis): 2 g ai/ha
GR90, VERPE (VERPE, dose for 90 percent growth reduction, probit analysis): 6 g ai/ha
Visual Growth Reduction (%) 21 Days After Application, VIOTR (VIOTR, 17.5 g ai/ha): E (45-59)
Visual Growth Reduction (%) 21 Days After Application, VIOTR (VIOTR, 35 g ai/ha): D (60-74)
Visual Growth Reduction (%) 21 Days After Application, VIOTR (VIOTR, 70 g ai/ha): C (75-84)
GR50, VIOTR (VIOTR, dose for 50 percent growth reduction, probit analysis): 22 g ai/ha
GR80, VIOTR (VIOTR, dose for 80 percent growth reduction, probit analysis): 63 g ai/ha
GR90, VIOTR (VIOTR, dose for 90 percent growth reduction, probit analysis): 111 g ai/ha
